According to the supplement of paper PMC11061612:

Assays:
Capivasertib = compound: C1CN(CCC1(C(=O)N[C@@H](CCO)C2=CC=C(C=C2)Cl)N)C3=NC=NC4=C3C=CN4 [Capivasertib]; details: max 10 µM
How it was run: (§1)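 Cancer cell lines were seeded into 1536-well plates in 7.5 μl medium (DMEM/F12 or RPMI, 10% FBS), held 24 hours at 37°C and 5% CO2, and dosed for 72 hours with final DMSO typically 0.2%. Luminescence from CellTiter-Glo 2.0, scaled between blank-well and DMSO-well means, served as viability. The single-agent IC50 was obtained from dose-response fits with a non-linear mixed effects model, each fit being a two-parameter logistic curve.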

AZD1775 = compound: C=CCn1c(=O)c2cnc(Nc3ccc(N4CCN(C)CC4)cc3)nc2n1-c1cccc(C(C)(C)O)n1 [AZD1775]; details: max 3 µM
How it was run: as §1

Trametinib = compound: CC(=O)Nc1cccc(-n2c(=O)n(C3CC3)c(=O)c3c(Nc4ccc(I)cc4F)n(C)c(=O)c(C)c32)c1 [Trametinib]; details: max 1 µM
How it was run: as §1

Palbociclib = compound: CC(=O)c1c(C)c2cnc(Nc3ccc(N4CCNCC4)cn3)nc2n(C2CCCC2)c1=O [Palbociclib]; details: max 10 µM
How it was run: as §1

AZD1390 = compound: CC(C)n1c(=O)n(C)c2cnc3cc(F)c(-c4ccc(OCCCN5CCCCC5)nc4)cc3c21 [AZD1390]; details: max 0.3 µM
How it was run: as §1

Venetoclax = compound: CC1(C)CCC(CN2CCN(c3ccc(C(=O)NS(=O)(=O)c4ccc(NCC5CCOCC5)c([N+](=O)[O-])c4)c(Oc4cnc5[nH]ccc5c4)c3)CC2)=C(c2ccc(Cl)cc2)C1 [Venetoclax]; details: max 1 µM
How it was run: as §1

Dasatinib = compound: CC1=C(C(=CC=C1)Cl)NC(=O)C2=CN=C(S2)NC3=CC(=NC(=N3)C)N4CCN(CC4)CCO [Dasatinib]; details: max 2 µM
How it was run: as §1

SG3199 = compound: CC1=CN2[C@@H](C1)C=NC3=CC(=C(C=C3C2=O)OC)OCCCCCOC4=C(C=C5C(=C4)N=C[C@@H]6CC(=CN6C5=O)C)OC [SG3199]; details: max 0.001 µM
How it was run: as §1

AZD2811 = compound: CCN(CCO)CCCOc1ccc2c(Nc3cc(CC(=O)Nc4cccc(F)c4)[nH]n3)ncnc2c1 [AZD2811]; details: max 1 µM
How it was run: as §1

SN-38 = compound: CCc1c2c(nc3ccc(O)cc13)-c1cc3c(c(=O)n1C2)COC(=O)[C@]3(O)CC [SN-38]; details: max 0.3 µM
How it was run: as §1

AZD0156 = compound: CN(C)CCCOc1ccc(-c2ccc3ncc4c(c3c2)n(C2CCOCC2)c(=O)n4C)cn1 [AZD0156]; details: max 3 µM
How it was run: as §1

AZD4320 = compound: CN(CC[C@H](CSC1=CC=CC=C1)NC2=C(C=C(C=C2)S(=O)(=O)NC(=O)C3=CC=C(C=C3)N4CCC(CC4)[C@H](C5=CC=CC=C5C6=CC=C(C=C6)Cl)O)S(=O)(=O)C(F)(F)F)CCO [AZD4320]; details: max 1 µM
How it was run: as §1

Alisertib = compound: COc1cc(Nc2ncc3c(n2)-c2ccc(Cl)cc2C(c2c(F)cccc2OC)=NC3)ccc1C(=O)O [Alisertib]; details: max 10 µM
How it was run: as §1

Gefitinib = compound: COc1cc2ncnc(Nc3ccc(F)c(Cl)c3)c2cc1OCCCN1CCOCC1 [Gefitinib]; details: max 10 µM
How it was run: as §1

Prexasertib = compound: COc1cccc(OCCCN)c1-c1cc(Nc2cnc(C#N)cn2)n[nH]1 [Prexasertib]; details: max 1 µM
How it was run: as §1

Doxorubicin = compound: COc1cccc2c1C(=O)c1c(O)c3c(c(O)c1C2=O)C[C@@](O)(C(=O)CO)C[C@@H]3O[C@H]1C[C@H](N)[C@H](O)[C@H](C)O1 [Doxorubicin]; details: max 1 µM
How it was run: as §1

AZD5153 = compound: COc1nnc2ccc(N3CCC(c4ccc(OCCN5CCN(C)C(=O)[C@H]5C)cc4)CC3)nn12 [AZD5153]; details: max 1 µM
How it was run: as §1

Lapatinib = compound: CS(=O)(=O)CCNCc1ccc(-c2ccc3ncnc(Nc4ccc(OCc5cccc(F)c5)c(Cl)c4)c3c2)o1 [Lapatinib]; details: max 10 µM
How it was run: as §1

AZD8186 = compound: C[C@@H](Nc1cc(F)cc(F)c1)c1cc(C(=O)N(C)C)cc2c(=O)cc(N3CCOCC3)oc12 [AZD8186]; details: max 3 µM
How it was run: as §1

Crizotinib = compound: C[C@@H](Oc1cc(-c2cnn(C3CCNCC3)c2)cnc1N)c1c(Cl)ccc(F)c1Cl [Crizotinib]; details: max 10 µM
How it was run: as §1

Savolitinib = compound: C[C@@H](c1ccc2nccn2c1)n1nnc2ncc(-c3cnn(C)c3)nc21 [Savolitinib]; details: max 1 µM
How it was run: as §1

AZD6738 = compound: C[C@@H]1COCCN1C2=NC(=NC(=C2)C3(CC3)[S@](=N)(=O)C)C4=C5C=CNC5=NC=C4 [AZD6738]; details: max 10 µM
How it was run: as §1

AZD5991 = compound: Cc1c2c(nn1C)CSCc1cc(n(C)n1)CSc1cc(c3ccccc3c1)OCCCc1c(C(=O)O)n(C)c3c-2c(Cl)ccc13 [AZD5991]; details: max 1 µM
How it was run: as §1

AZD7648 = compound: Cc1cc2ncnn2cc1Nc1ncc2c(n1)n(C1CCOCC1)c(=O)n2C [AZD7648]; details: max 10 µM
How it was run: as §1

Taselisib = compound: Cc1nc(-c2cn3c(n2)-c2ccc(-c4cnn(C(C)(C)C(N)=O)c4)cc2OCC3)n(C(C)C)n1 [Taselisib]; details: max 10 µM
How it was run: as §1

Selumetinib = compound: Cn1cnc2c(F)c(Nc3ccc(Br)cc3Cl)c(C(=O)NOCCO)cc21 [Selumetinib]; details: max 10 µM
How it was run: as §1

MK-2206 = compound: NC1(c2ccc(-c3nc4ccn5c(=O)[nH]nc5c4cc3-c3ccccc3)cc2)CCC1 [MK-2206]; details: max 10 µM
How it was run: as §1

Olaparib = compound: O=C(c1cc(Cc2n[nH]c(=O)c3ccccc23)ccc1F)N1CCN(C(=O)C2CC2)CC1 [Olaparib]; details: max 10 µM
How it was run: as §1

Cell Line	IC50, cell viability 72 h (Capivasertib) [nM]	IC50, cell viability 72 h (AZD1775) [nM]	IC50, cell viability 72 h (Trametinib) [nM]	IC50, cell viability 72 h (Palbociclib) [nM]	IC50, cell viability 72 h (AZD1390) [nM]	IC50, cell viability 72 h (Venetoclax) [nM]	IC50, cell viability 72 h (Dasatinib) [nM]	IC50, cell viability 72 h (SG3199) [nM]	IC50, cell viability 72 h (AZD2811) [nM]	IC50, cell viability 72 h (SN-38) [nM]	IC50, cell viability 72 h (AZD0156) [nM]	IC50, cell viability 72 h (AZD4320) [nM]	IC50, cell viability 72 h (Alisertib) [nM]	IC50, cell viability 72 h (Gefitinib) [nM]	IC50, cell viability 72 h (Prexasertib) [nM]	IC50, cell viability 72 h (Doxorubicin) [nM]	IC50, cell viability 72 h (AZD5153) [nM]	IC50, cell viability 72 h (Lapatinib) [nM]	IC50, cell viability 72 h (AZD8186) [nM]	IC50, cell viability 72 h (Crizotinib) [nM]	IC50, cell viability 72 h (Savolitinib) [nM]	IC50, cell viability 72 h (AZD6738) [nM]	IC50, cell viability 72 h (AZD5991) [nM]	IC50, cell viability 72 h (AZD7648) [nM]	IC50, cell viability 72 h (Taselisib) [nM]	IC50, cell viability 72 h (Selumetinib) [nM]	IC50, cell viability 72 h (MK-2206) [nM]	IC50, cell viability 72 h (Olaparib) [nM]
A101D (Melanoma)	> 10000	687	148	> 10000	> 300	> 1000	> 2000	> 1	> 1000	55.9	> 3000	> 1000	5360	> 10000	181	456	155	> 10000	> 3000	> 10000	> 1000	4490	198	> 10000	2710	3920	> 10000	> 10000
DMS-53 (Small Cell Lung Carcinoma)	> 10000	> 3000	> 1000	> 10000	> 300	> 1000	> 2000	> 1	> 1000	37	> 3000	174	> 10000	> 10000	> 1000	> 1000	> 1000	> 10000	> 3000	> 10000	> 1000	> 10000	> 1000	> 10000	> 10000	> 10000	> 10000	> 10000
DU-4475 (Breast Carcinoma)	> 10000	437	1.18	> 10000	> 300	> 1000	> 2000	> 1	> 1000	1.93	> 3000	93.5	543	> 10000	86.4	32.3	210	6760	> 3000	3780	> 1000	1700	> 1000	> 10000	> 10000	55.6	> 10000	5190
HCC1428 (Breast Carcinoma)	> 10000	> 3000	> 1000	> 10000	> 300	> 1000	> 2000	> 1	> 1000	> 300	> 3000	> 1000	> 10000	> 10000	> 1000	> 1000	483	> 10000	> 3000	> 10000	> 1000	> 10000	67.7	> 10000	> 10000	> 10000	> 10000	> 10000
JIMT-1 (Breast Carcinoma)	> 10000	1080	> 1000	> 10000	> 300	> 1000	1080	> 1	> 1000	> 300	> 3000	> 1000	> 10000	> 10000	85.1	> 1000	> 1000	> 10000	> 3000	> 10000	> 1000	5640	> 1000	> 10000	4290	> 10000	–	> 10000
JVM-2 (B-Cell Non-Hodgkin's Lymphoma)	1280	98.3	> 1000	1540	> 300	> 1000	44.6	> 1	238	3.86	> 3000	> 1000	203	> 10000	10.8	48.1	53.1	9870	976	5650	> 1000	3230	> 1000	> 10000	307	> 10000	–	> 10000
Jurkat (T-Lymphoblastic Leukemia)	2610	1740	> 1000	7660	> 300	> 1000	> 2000	> 1	> 1000	7.97	> 3000	482	8510	> 10000	25.8	415	210	> 10000	> 3000	> 10000	> 1000	3550	292	> 10000	5810	> 10000	–	> 10000
